Data taken from PubChem BioAssay (NCI).
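Briefly, cells in 96-well plates were exposed to five compound concentrations for 48 h, and endpoints were estimated by linear interpolation. The concentration for 50% growth inhibition is given as GI50. TGI: total growth inhibition.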

How the values were obtained:
Assay in all cases: growth of human tumour cells (NCI), 48 h
SK-MEL-2 melanoma = tested on: SK-MEL-2 melanoma
RXF 393 renal = tested on: RXF 393 renal
CAKI-1 renal = tested on: CAKI-1 renal
U251 CNS = tested on: U251 CNS
MDA-MB-231 breast = tested on: MDA-MB-231 breast
PC-3 prostate = tested on: PC-3 prostate
SNB-19 CNS = tested on: SNB-19 CNS
IGROV1 ovarian = tested on: IGROV1 ovarian
K-562 leukemia = tested on: K-562 leukemia
SR leukemia = tested on: SR leukemia

SMILES	GI50 (SK-MEL-2 melanoma) [µM]	TGI (SK-MEL-2 melanoma) [µM]	GI50 (RXF 393 renal) [µM]	TGI (RXF 393 renal) [µM]	GI50 (CAKI-1 renal) [µM]	TGI (CAKI-1 renal) [µM]	GI50 (U251 CNS) [µM]	TGI (U251 CNS) [µM]	GI50 (MDA-MB-231 breast) [µM]	TGI (MDA-MB-231 breast) [µM]	GI50 (PC-3 prostate) [µM]	TGI (PC-3 prostate) [µM]	GI50 (SNB-19 CNS) [µM]	TGI (SNB-19 CNS) [µM]	GI50 (IGROV1 ovarian) [µM]	TGI (IGROV1 ovarian) [µM]	GI50 (K-562 leukemia) [µM]	TGI (K-562 leukemia) [µM]	TGI (SR leukemia) [µM]	GI50 (SR leukemia) [µM]
O=C(O)CN(CCN(CC(=O)O)CC(=O)O)CC(=O)O.[Mn+2]	> 100	> 100	> 100	> 100	> 100	> 100	> 100	> 100	> 100	> 100	> 100	> 100	> 100	> 100	> 100	> 100	> 100	> 100		
CC(=O)Nc1ccc(C2CC(c3ccc([N+](=O)[O-])cc3)=Nc3ccccc3S2=O)cc1 (stereo not given)		> 100		32.3										> 100		34.7		23.1		
COc1ccccc1Oc1nccc(-c2c(-c3ccc(F)cc3)ncn2C2CCNCC2)n1	> 25	> 25	8.67	> 25	> 23.2	> 25	> 24	> 25	14.5	> 25	> 20.9	> 25	> 25	> 25	> 22.6	> 25	8.32	> 25		
O=C1NC(=O)C2C(=O)NC(=O)C1C2Cc1ccco1 (stereo not given)		> 100		> 100		> 100								> 100		> 100		> 100		
COc1cc(OC)c(OC)cc1/C=C/c1nc2ccccc2s1		> 100		> 100				> 100		> 100		> 100		> 100		> 100				
CC1NOC(=O)C1N=Nc1ccc(Cl)cc1Cl (stereo not given)		75		46.1		60.9		38.5						55.8		85.7		82.5	71.9	
CCOC(=O)c1ccc(N=Nc2ccc(N(CCC#N)CCC#N)cc2C)cc1		> 100		> 100		> 100		> 100						> 100		> 100		> 100		
OCCCCC#Cc1ccccc1C#Cc1cccc(C(F)(F)F)c1	19.7	42.1			21.3	36.5	17.2	31.6	18.3	33.4	18.2	33.7	20.2	36.4	14.4	28.5	22.5	71.5	> 100	18.3
COC(=O)C1=C(C(=O)OC)C2(c3ccccc3)OC1(c1ccccc1)c1cc3ccccc3cc12		3.13		2.57		2.83		18.8						15.5		3.78		6.06		
ClCCOCCn1cnc2c(Cl)nc(Cl)nc21					2.61	13.5	12.3	24.7	14.4	28.3	14	31.5	16.4	30.5	3.34	12.7	15.9	> 100		
Cc1ccc(S(=O)(=O)NCCCCC(N)C(=O)O)cc1 (stereo not given)				> 100		> 100		> 100		> 100		> 100		> 100		> 100		> 100		
COc1ccc2nc(NC(=O)C(=O)CC(=O)c3ccc([N+](=O)[O-])cc3)sc2c1		> 100				> 100		> 100						> 100		> 100		> 100		
OC(c1ccccc1Br)(c1ccccc1Br)C(F)(F)F		35.5		34.5		> 100		34.3								> 100			45.9	
Cc1cccc(Cn2cc(CO)c3cnccc32)c1	> 100	> 100	> 100	> 100	> 100	> 100	62.5	> 100	> 100	> 100	28.2	> 100	> 100	> 100	44.8	> 100				
CCOC(=O)C1(C)CCC(C(C(=O)O)C(=O)O)CC1=O (stereo not given)				> 100		> 100		> 100						> 100		> 100			> 100	
COc1ccc(/C=C2\CCC/C(=C\c3ccc(OC)c(OC)c3)C2=O)cc1OC	5.02	15.2	0.613	3.18	1.13	8.16	1.4	> 32.5	10.5	> 32.5	2.83	> 32.5	20.8	> 32.5	1.72	> 32.5	2.28	> 32.5		
N#CC1CC(c2ccccc2)Nc2cc(Cl)ccc2N1 (stereo not given)		> 89.2		98.7		> 100		> 100						> 100		> 100		> 100	59.8	
CC(=O)OCC(=O)[C@@]1(O)CC[C@H]2[C@@H]3C[C@H](C)C4=CC(=O)C=C[C@]4(C)[C@@]3(F)[C@@H](O)C[C@@]21C		> 100		> 100		> 100		> 100						> 100		> 100		> 100	> 100	
CCc1cccc(CC)c1NC(=O)/C(Cl)=C(/Cl)C(=O)O		> 100		47.2		32.6		> 69.8						> 100		50.4		> 94.9	> 73.6	
COc1cc(/C=C/c2csnn2)cc(OC)c1OC		> 100		> 100		> 100		> 100						> 100		> 100		> 100	> 100	
N#Cc1ccc(Sc2nc3ccccc3[nH]2)cc1		> 100		> 100		> 100		> 100						> 100		> 100		> 100	> 100	
Nc1nc(=S)c2c(ncn2CCO)[nH]1		> 100		> 100		> 100		> 100						> 100		> 100		> 100		
